Results on five compounds are retold here after publication PMC11720030, “Inhibitory Activity of N- and S-Functionalized Monoterpene Diols Towards Monoamine Oxidases A and B” (International Journal of Molecular Sciences, 2024).

Holding throughout (type): biochemical
In assay [1] the target is T1, MAO-A (Mus musculus, UniProt Q64133).
T1 construct: gene Maoa
T1 sequence (Q64133 1-526): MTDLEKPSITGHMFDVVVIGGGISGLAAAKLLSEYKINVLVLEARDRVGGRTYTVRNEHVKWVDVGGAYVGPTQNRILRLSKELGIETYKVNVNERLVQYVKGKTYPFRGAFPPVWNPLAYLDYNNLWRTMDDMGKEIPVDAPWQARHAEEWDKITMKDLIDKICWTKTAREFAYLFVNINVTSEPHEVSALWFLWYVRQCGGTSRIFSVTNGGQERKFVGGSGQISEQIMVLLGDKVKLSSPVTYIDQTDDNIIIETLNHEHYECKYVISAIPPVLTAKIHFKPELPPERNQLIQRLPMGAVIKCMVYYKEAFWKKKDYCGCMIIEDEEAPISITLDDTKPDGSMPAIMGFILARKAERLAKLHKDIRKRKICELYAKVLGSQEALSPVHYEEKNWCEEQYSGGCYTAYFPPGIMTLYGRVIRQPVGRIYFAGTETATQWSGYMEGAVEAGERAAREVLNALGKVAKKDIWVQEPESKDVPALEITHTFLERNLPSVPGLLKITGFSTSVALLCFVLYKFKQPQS
Nature of the assay: fluorescent kynuramine MAO activity assay in crude mouse brain mitochondria.

Assay [2] has as its target T2, MAO-B (Mus musculus, UniProt Q8BW75).
T2 construct: gene Maob
T2 sequence (Q8BW75 2-520): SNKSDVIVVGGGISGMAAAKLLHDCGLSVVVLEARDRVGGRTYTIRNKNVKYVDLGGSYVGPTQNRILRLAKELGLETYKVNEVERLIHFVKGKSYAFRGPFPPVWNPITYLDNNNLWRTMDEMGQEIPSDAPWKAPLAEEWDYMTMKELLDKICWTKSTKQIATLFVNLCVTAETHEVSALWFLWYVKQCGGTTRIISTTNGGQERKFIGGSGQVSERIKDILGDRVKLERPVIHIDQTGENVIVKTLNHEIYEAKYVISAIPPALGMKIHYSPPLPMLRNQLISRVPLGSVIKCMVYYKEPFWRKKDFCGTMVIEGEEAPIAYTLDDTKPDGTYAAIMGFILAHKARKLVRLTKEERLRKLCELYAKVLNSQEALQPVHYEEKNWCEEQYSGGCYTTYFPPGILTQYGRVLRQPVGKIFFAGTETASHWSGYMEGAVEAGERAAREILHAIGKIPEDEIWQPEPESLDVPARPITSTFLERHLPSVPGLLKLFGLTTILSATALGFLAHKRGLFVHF
The assay can be described thus: residual MAO-B activity at […], fluorescent kynuramine assay in crude mouse brain mitochondria. To be noted: read-out: MAO-B, % ± SD.

Assay [3] has as its target T1, MAO-A. Nature of the assay: residual MAO-A activity at […], fluorescent kynuramine assay in crude mouse brain mitochondria. To be noted: read-out: MAO-A, % ± SD.
The target in assay [4] is T2, MAO-B. The assay can be described thus: fluorescent kynuramine MAO activity assay in crude mouse brain mitochondria.

Turning to `C#CCN(C)CCCOc1ccc(Cl)cc1Cl` [clorgiline, reference compound], in assay [1], inhibition was half-maximal at 0.00136 µM (IC50).

As for `C=C(CNc1ccc(C)cc1)[C@@H]1CC=C(C)[C@@H](O)[C@@H]1O` [compound 27, (1R,2R,6S)-3-Methyl-6-(3-(p-tolylamino)prop-1-en-2-yl)cyclohex-3-ene-1,2-diol], the activity at 100 µM in assay [2] was found to be 66 ± 0.1%.

On to `C=C(CNc1ccc(C)cc1C)[C@@H]1CC=C(C)[C@@H](O)[C@@H]1O` [compound 28, (1R,2R,6S)-6-(3-(2,4-Dimethylphenylamino)prop-1-en-2-yl)-3-methylcyclohex-3-ene-1,2-diol], for which 178 ± 44 µM corresponded to half-maximal inhibition in assay [1] (IC50).

In the case of `C=C(CNc1ccccc1C(C)=O)[C@@H]1CC=C(C)[C@@H](O)[C@@H]1O` [compound 30, 1-(2-(2-((1S,5R,6R)-5,6-Dihydroxy-4-methylcyclohex-3-enyl)allylamino)phenyl)ethanone], the activity at 100 µM in assay [3] was found to be 57 ± 1%. It took 95 ± 5 µM to reach half-maximal inhibition in assay [4] (IC50).

As for `C=C(CNc1cccc(C(C)=O)c1)[C@@H]1CC=C(C)[C@@H](O)[C@@H]1O` [compound 31, 1-(3-(2-((1S,5R,6R)-5,6-Dihydroxy-4-methylcyclohex-3-enyl)allylamino)phenyl)ethanone], the activity at 100 µM in assay [2] stood at 66 ± 2%.
